The record followed here is ChEMBL document CHEMBL4616725, “Global PROTAC Toolbox for Degrading BCR-ABL Overcomes Drug-Resistant Mutants and Adverse Effects” (J Med Chem, 2020).

Data set [1] has as its target T1, Protein cereblon/Tyrosine-protein kinase ABL1/Breakpoint cluster region protein (Homo sapiens, UniProt P00519+P11274+Q96SW2). In words: Protac activity at Cereblon/BCR/ABL in human K562 cells assessed as induction of BCR-ABL degradation incubated for 32 to 48 hrs by Western blot analysis. In kind it is cell-based. Background: In western blotting, separated proteins are transferred to a membrane and probed.

Data set [2] has as its system K562. The data set can be described thus: Antiproliferative activity against human K562 cells incubated for 3 days by CCK8 assay. In kind it is functional, cell-based. To be noted: K562, 72 h. A general note: Formazan colour is commonly taken as a measure of viable cells.
Data set [3] relates to Protein cereblon/Tyrosine-protein kinase ABL1/Breakpoint cluster region protein (Homo sapiens), P00519+P11274+Q96SW2 [T315I]. The data set can be described thus: Protac activity at Cereblon/BCR/ABL T315I mutant (unknown origin) expressed in mouse BaF3 cells assessed as reduction in BCR-ABL T315I mutant protein levels at 3 to 30000 nM incubated for 32 hrs by Western blot analysis. In kind it is cell-based.

Data set [4] concerns BaF3. The data set can be described thus: Antiproliferative activity against wild type mouse BA/F3 cells incubated for 3 days by CCK8 assay. In kind it is cell-based. The settings on record: BaF3, 72 h.
Data set [5] addresses Protein cereblon/Tyrosine-protein kinase ABL1/Breakpoint cluster region protein (Homo sapiens, UniProt P00519+P11274+Q96SW2, T315I). In kind it is cell-based, BaF3.
Data set [6] relates to Protein cereblon/Tyrosine-protein kinase ABL1/Breakpoint cluster region protein (Homo sapiens), P00519+P11274+Q96SW2 [E255K]. In words: Protac activity at Cereblon/BCR/ABL E255K mutant (unknown origin) expressed in human HeLa cells assessed as reduction in BCR-ABL E255K mutant protein levels at 10 to 10000 nM incubated for 32 hrs by Western blot analysis. In kind it is cell-based.

The subject of data set [7] is Protein cereblon/Tyrosine-protein kinase ABL1/Breakpoint cluster region protein (Homo sapiens), P00519+P11274+Q96SW2 [H396R]. The data set can be described thus: Protac activity at Cereblon/BCR/ABL H396R mutant (unknown origin) expressed in human HeLa cells assessed as reduction in BCR-ABL H396R mutant protein levels at 10 to 10000 nM incubated for 32 hrs by Western blot analysis. In kind it is cell-based.

Data set [8] concerns Protein cereblon/Tyrosine-protein kinase ABL1/Breakpoint cluster region protein (Homo sapiens), P00519+P11274+Q96SW2 [V468F]. The data set can be described thus: Protac activity at Cereblon/BCR/ABL V468F mutant (unknown origin) expressed in human HeLa cells assessed as reduction in BCR-ABL V468F mutant protein levels at 10 to 10000 nM incubated for 32 hrs by Western blot analysis. In kind it is cell-based.

Data set [9] relates to H9c2. The data set can be described thus: Antiproliferative activity against rat H9C2 cells incubated for 3 days by CCK8 assay. In kind it is cell-based. The settings on record: H9c2, 72 h.
Data set [10] relates to HUVEC. In words: Antiproliferative activity against human HUVEC incubated for 3 days by CCK8 assay. To be noted: 72 h. In kind it is cell-based.
Data set [11] has as its target T2, Tyrosine-protein kinase ABL1 (Homo sapiens, UniProt P00519, T315I). The data set can be described thus: Inhibition of human ABL T315I mutant using EAIYAAPFAKKK substrate and [gamma-33P]-ATP incubated for 40 mins by scintillation counting method.
The target in data set [12] is Tyrosine-protein kinase Lyn (Homo sapiens, UniProt P07948). In words: Inhibition of human LYN using poly(Glu,Tyr)4:1 substrate and [gamma-33P]-ATP incubated for 40 mins by scintillation counting method.
Data set [13] deals with T3, Proto-oncogene tyrosine-protein kinase Src (Homo sapiens, UniProt P12931). The data set can be described thus: Inhibition of human c-SRC using poly(Glu,Tyr)4:1 substrate and [gamma-33P]-ATP incubated for 40 mins by scintillation counting method.
Data set [14] concerns the target Vascular endothelial growth factor receptor 2 (Homo sapiens, UniProt P35968). The data set can be described thus: Inhibition of human VEGFR2 using MBP substrate and [gamma-33P]-ATP incubated for 40 mins by scintillation counting method.
Data set [15] deals with HUVEC. In words: Toxicity in HUVEC assessed as inhibition of tube formation at 1 uM incubated for 20 hrs by optical microscopy based matrigel-based assay. The settings on record: human. In kind it is cell-based.
The target in data set [16] is T1, Protein cereblon/Tyrosine-protein kinase ABL1/Breakpoint cluster region protein. The data set can be described thus: Protac activity at Cereblon/BCR/ABL in human K562 cells assessed as synergistic antiproliferation effect by measuring combination index at 0.25 to 4 times alone antiproliferative EC50 ibn presence of hedgehog pathway inhibitor […] by Chou-Talalay method. In kind it is cell-based.

Data set [17] has as its target Protein cereblon/Receptor-type tyrosine-protein kinase FLT3 (Homo sapiens, UniProt P36888+Q96SW2). In words: Protac activity at Cereblon/Flt3 in human K562 cells assessed as reduction in Flt3 protein levels at 3 to 30000 nM incubated for 48 hrs by Western blot analysis. In kind it is ADME, cell-based.
Data set [18] concerns the target Protein cereblon/Proto-oncogene tyrosine-protein kinase Src (Homo sapiens, UniProt P12931+Q96SW2). The data set can be described thus: Protac activity at Cereblon/Src in human K562 cells assessed as reduction in Src protein levels at 3 to 30000 nM incubated for 48 hrs by Western blot analysis. In kind it is ADME, cell-based. To be noted: k562, 48 h, 30 µM.
Data set [19] deals with Protein cereblon/Mast/stem cell growth factor receptor Kit (Homo sapiens, UniProt P10721+Q96SW2). In words: Protac activity at Cereblon/C-Kit in human K562 cells assessed as reduction in C-Kit protein levels at 3 to 30000 nM incubated for 48 hrs by Western blot analysis. In kind it is ADME, cell-based. The settings on record: k562, 48 h, 30 µM.
The target in data set [20] is Protein cereblon/Platelet-derived growth factor receptor alpha (Homo sapiens, UniProt P16234+Q96SW2). The data set can be described thus: Protac activity at Cereblon/PDGFRalpha in human K562 cells assessed as reduction in PDGFRalpha protein levels at 3 to 30000 nM incubated for 48 hrs by Western blot analysis. In kind it is ADME, cell-based. To be noted: k562, 48 h, 30 µM.

For data set [21], the target named is T2, Tyrosine-protein kinase ABL1. In words: Safety index, ratio of compound IC50 to ponatinib IC50 for inhibition of human ABL T315I mutant using EAIYAAPFAKKK substrate and [gamma-33P]-ATP incubated for 40 mins by scintillation counting method.
Data set [22] has as its target T3, Proto-oncogene tyrosine-protein kinase Src. The data set can be described thus: Safety index, ratio of compound IC50 to ponatinib IC50 for inhibition of human c-SRC using poly(Glu,Tyr)4:1 substrate and [gamma-33P]-ATP incubated for 40 mins by scintillation counting method.

Active and inactive are the calls of the source. The rule behind the calls is not given here. Some results are limits rather than exact numbers.

T3 sequence (P12931 2-536 limits assumed): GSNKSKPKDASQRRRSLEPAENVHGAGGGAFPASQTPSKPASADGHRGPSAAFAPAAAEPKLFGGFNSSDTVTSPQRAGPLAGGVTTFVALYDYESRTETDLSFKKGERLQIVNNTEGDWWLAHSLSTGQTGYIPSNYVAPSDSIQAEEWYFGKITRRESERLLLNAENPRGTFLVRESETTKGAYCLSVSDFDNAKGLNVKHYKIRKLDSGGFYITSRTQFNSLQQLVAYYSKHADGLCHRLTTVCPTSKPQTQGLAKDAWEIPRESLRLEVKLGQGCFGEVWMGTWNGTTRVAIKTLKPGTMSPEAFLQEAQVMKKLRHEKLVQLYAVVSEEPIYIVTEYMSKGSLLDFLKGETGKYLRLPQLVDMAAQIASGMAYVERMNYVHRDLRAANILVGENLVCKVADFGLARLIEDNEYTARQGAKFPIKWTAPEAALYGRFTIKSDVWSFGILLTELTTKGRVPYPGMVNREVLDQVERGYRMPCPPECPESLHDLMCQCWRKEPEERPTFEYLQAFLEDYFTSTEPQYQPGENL
Tyrosine-protein kinase Lyn, sequence (P07948 whole entry): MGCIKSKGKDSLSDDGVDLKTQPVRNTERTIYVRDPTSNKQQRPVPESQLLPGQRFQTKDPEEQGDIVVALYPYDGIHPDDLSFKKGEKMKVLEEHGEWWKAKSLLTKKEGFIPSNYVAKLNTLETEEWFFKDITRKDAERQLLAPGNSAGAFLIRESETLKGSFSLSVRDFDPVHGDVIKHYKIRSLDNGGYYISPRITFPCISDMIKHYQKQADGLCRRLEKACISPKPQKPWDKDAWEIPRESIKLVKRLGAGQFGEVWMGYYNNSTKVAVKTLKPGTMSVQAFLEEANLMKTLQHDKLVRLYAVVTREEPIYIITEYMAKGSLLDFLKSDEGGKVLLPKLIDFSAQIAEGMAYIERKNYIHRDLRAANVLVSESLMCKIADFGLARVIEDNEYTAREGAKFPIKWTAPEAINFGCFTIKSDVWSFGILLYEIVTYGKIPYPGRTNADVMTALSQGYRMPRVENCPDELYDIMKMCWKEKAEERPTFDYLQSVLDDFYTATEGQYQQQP
Protein cereblon/Receptor-type tyrosine-protein kinase FLT3, sequence (P36888 whole entry): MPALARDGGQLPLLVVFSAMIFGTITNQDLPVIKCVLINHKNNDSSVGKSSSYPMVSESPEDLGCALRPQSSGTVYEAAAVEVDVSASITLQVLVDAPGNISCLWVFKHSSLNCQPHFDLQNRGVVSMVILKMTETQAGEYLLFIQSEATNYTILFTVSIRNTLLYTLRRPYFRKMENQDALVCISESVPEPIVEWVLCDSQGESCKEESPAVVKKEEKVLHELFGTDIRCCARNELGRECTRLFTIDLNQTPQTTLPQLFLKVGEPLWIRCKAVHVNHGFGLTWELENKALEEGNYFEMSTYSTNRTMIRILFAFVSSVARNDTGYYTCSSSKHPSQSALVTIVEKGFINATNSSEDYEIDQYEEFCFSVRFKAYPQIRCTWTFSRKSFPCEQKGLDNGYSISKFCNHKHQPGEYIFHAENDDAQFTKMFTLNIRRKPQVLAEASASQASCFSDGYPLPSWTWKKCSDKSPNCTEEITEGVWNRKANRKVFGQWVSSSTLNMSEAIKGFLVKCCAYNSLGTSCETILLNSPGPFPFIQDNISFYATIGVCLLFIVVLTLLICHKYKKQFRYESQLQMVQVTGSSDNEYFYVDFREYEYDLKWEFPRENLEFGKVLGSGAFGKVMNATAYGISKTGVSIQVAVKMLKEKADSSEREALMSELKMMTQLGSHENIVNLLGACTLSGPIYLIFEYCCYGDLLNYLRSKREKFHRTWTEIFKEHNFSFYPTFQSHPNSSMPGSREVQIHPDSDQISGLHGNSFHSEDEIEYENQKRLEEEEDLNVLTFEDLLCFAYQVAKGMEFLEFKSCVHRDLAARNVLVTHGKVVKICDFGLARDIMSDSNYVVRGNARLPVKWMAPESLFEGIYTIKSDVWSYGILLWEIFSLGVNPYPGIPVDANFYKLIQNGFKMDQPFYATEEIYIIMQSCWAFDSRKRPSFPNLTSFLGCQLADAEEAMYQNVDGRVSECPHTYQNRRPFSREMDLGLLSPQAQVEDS
Protein cereblon/Receptor-type tyrosine-protein kinase FLT3, sequence (Q96SW2 whole entry): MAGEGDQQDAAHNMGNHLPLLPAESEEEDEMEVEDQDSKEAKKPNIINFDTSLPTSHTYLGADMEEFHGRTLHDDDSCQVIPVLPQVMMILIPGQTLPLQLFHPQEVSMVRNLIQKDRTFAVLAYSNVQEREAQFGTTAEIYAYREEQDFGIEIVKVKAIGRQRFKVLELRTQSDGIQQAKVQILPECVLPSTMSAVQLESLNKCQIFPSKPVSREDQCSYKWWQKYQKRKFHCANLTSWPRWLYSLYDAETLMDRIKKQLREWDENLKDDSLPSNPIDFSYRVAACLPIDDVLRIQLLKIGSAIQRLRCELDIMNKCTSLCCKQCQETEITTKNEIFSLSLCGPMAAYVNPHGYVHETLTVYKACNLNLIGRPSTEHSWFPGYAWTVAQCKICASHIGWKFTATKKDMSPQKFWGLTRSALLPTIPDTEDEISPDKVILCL
Protein cereblon/Proto-oncogene tyrosine-protein kinase Src, sequence (P12931 2-536 limits assumed): as the sequence (P12931 2-536 limits assumed) above
Protein cereblon/Proto-oncogene tyrosine-protein kinase Src, sequence (Q96SW2 whole entry): as the sequence (Q96SW2 whole entry) above
Vascular endothelial growth factor receptor 2, sequence (P35968 whole entry): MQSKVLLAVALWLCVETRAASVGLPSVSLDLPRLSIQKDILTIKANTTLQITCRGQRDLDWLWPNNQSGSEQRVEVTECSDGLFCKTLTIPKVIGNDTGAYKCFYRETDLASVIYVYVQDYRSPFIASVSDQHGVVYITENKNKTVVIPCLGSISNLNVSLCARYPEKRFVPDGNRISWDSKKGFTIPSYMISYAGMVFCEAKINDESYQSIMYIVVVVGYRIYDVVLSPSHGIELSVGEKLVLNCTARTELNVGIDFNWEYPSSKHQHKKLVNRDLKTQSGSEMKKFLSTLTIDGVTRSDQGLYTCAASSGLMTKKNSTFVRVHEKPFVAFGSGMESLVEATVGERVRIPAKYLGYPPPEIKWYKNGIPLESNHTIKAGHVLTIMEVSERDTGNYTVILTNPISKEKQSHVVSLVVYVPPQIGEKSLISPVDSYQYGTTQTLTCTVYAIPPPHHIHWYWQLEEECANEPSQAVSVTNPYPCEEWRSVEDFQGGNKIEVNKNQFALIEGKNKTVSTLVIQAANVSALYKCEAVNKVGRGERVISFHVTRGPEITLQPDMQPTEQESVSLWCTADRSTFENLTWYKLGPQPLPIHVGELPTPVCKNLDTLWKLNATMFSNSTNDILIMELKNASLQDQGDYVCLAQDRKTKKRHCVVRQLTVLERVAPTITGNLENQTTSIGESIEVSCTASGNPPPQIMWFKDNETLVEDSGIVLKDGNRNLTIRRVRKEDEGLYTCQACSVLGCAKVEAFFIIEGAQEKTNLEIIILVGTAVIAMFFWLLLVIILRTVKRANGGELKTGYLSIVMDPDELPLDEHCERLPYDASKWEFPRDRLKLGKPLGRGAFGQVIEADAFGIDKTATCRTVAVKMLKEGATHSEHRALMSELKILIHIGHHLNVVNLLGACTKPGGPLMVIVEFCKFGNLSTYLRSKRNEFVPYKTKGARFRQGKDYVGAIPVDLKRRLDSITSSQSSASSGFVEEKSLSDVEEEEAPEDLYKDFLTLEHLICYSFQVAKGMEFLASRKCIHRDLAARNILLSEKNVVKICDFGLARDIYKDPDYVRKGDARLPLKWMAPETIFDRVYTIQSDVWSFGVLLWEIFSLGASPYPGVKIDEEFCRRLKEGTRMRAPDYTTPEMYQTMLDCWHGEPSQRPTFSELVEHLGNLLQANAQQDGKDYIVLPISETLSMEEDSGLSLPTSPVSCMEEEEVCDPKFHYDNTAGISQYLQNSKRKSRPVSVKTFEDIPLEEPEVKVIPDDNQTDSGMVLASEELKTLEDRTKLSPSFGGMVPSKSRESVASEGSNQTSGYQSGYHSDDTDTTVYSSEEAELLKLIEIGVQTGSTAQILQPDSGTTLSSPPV

Broadly, the DC50 is the concentration giving 50% degradation. What is called IC50 is the concentration at which inhibition is half-maximal. The term EC50 denotes the midpoint of the concentration-response curve. In the case of `Cc1ccc(C(=O)Nc2ccc(CN3CCN(C(=O)CCCc4cn(CCOCCOCCOCCNc5cccc6c5C(=O)N(C5CCC(=O)NC5=O)C6=O)nn4)CC3)c(C(F)(F)F)c2)cc1C#Cc1cnc2cccnn12` (configuration not stated), the DC50 in data set [1] was found to be 20 nM. The 50% inhibitory concentration (IC50) in data set [2] was 7.5 nM; in data set [11] it was 13.1 nM; in data set [12], 44.2 nM; in [13], 2580 nM; in [14], 441 nM; in [17] it was more than 300 nM. Further, the result in data set [3], in data set [6], in data set [7] and in [8] was Active. Further, the EC50 was more than 10000 nM in data set [4], 28.5 nM in data set [5], more than 10000 nM in data set [9] and more than 10000 nM in data set [10]. The Activity entry in data set [15] is reported as “Non-Toxic”; in data set [18], “Not Active”; in data set [19], “Not Active”; in [20], “Not Active”. In data set [16], the CI is less than 1. Besides, the figures for the “Ratio IC50” value in [21] and in data set [22] were 13 and 257, respectively.
